Test results taken from article PMC5724969 (Nature chemical biology, 2017).
Read-outs that look alike come from different tables or passages of the source.

System: chPylRS (chimeric pyrrolysyl-tRNA synthetase)
Assay: […]-tRNA aminoacylation assay, nuclease P1/TLC
Type: biochemical, Methanosarcina mazei; Methanosarcina barkeri
Conditions: tRNA(Pyl), 10 mM MgCl2, pH 7.2

With `Nc1ncnc2c1ncn2[C@@H]1O[C@H](COP(=O)(O)OP(=O)(O)OP(=O)(O)O)[C@@H](O)[C@H]1O` [ATP] the Km (read-out: KM ^ATP, BocK as amino acid) was 2.54 ± 0.16 µM.

Compound `CC(C)(C)OC(=O)NCCCC[C@H](N)C(=O)O` [compound 2, BocK] has a Km (read-out: KM^BocK, ATP) of 1030 ± 50 µM.
